According to patent US20260234165A1, “MACROCYCLIC COMPOUNDS, PREPARATION METHOD THEREFOR, AND USE THEREOF” (GENFLEET THERAPEUTICS (SHANGHAI) INC., priority 2004, published 2026):
Read-outs that look alike come from different tables or passages of the source.

Experiments:
[1] = Assay for stability in liver microsomes; assay type: in vitro ADME; conditions: human liver microsomes
Experimental: This experiment was intended to investigate the metabolic stability of the test compounds in human liver microsomes. The materials used in the experiment included 10 mM solutions of the test compounds and the control sample, human liver microsomes, and reduced nicotinamide adenine dinucleotide phosphate (NADPH) powder. In the experiment, a 100 mM potassium phosphate buffer was used as the buffer system.
The liver microsome working solution was prepared by diluting the liver microsome stock solution to 0.75 mg/mL using the 100 mM potassium phosphate buffer. Then, 5 μL of the 10 mM stock solution of the test compound was taken, and 195 μL of methanol was added. The mixture was well mixed to prepare a working solution A with a concentration of 0.25 mM.
Subsequently, the working solution A was diluted to 1.5 μM using the liver microsome working solution to prepare a compound-liver microsome mixed solution. Additionally, NADPH powder was dissolved in a 100) mM potassium phosphate buffer to prepare a 6 mM NADPH solution. The compound-liver microsome mixed solution was dispensed into a 96-well plate at 30 μL/well, with labeled time points of 0 min, 30 min, and 60 min. For 0-min samples, 180 μL of acetonitrile containing 100 ng/mL tolbutamide and 15 μL of the NADPH solution were added directly. The 96-well plate and the NADPH solution were then preheated under a 37° C. water bath for 5 min. After the preheating, 15 μL of the NADPH solution was added to each of the 30-min and 60-min sample wells. The plate was gently shaken for mixing and then incubated under the 37° C. water bath for the corresponding time. After the incubation was completed. 180 μL of acetonitrile containing 100 ng/mL tolbutamide was added to each sample well. The plate was sealed with a sealing film, shaken for 10 min (800 rpm/min), and then centrifuged for 15 min (4000 rpm). After the centrifugation, 50 μL of the supernatant was taken and added to a 96-well plate containing 150 μL of deionized water, and then the plate was sealed and shaken for 10 min (800 rpm) for uniform mixing. Subsequently sample analysis was performed using liquid chromatography-tandem mass spectrometry (LC-MS/MS).
The elimination rate constant and clearance rate of the test compound in liver microsomes were calculated using the following formulas: Remaining rate (%)=(peak area ratio of the compound to internal standard at any time point/peak area ratio of the compound to internal standard at 0 min)×100%,^4. T1/2=0.693/ke, where ke is the elimination rate constant and T1/2 is the half-life. Liver microsome intrinsic clearance rate (CLint(mic))=0.693/(T1/2× microsome protein concentration (mg/mL)). Liver intrinsic clearance rate (CLint(liver))=CLint(mic)×microsome protein-to-liver weight ratio (mg/g)×liver-to-body weight ratio (g/kg). In the formulas, CLint(mic) is the liver microsome intrinsic clearance rate, CLint(liver) is the liver intrinsic clearance rate, and CL(liver) is the liver clearance rate. For humans, the microsome protein-to-liver weight ratio was 45 mg/g, and the liver-to-body weight ratio was 20.7 g/kg.

NCI-H441 cells = assay: 3D cell proliferation assay (CellTiter Glo-3D), NCI-H441; assay type: cell-based, human; conditions: medium with 2% FBS, read-out: H441 AP IC50
In short: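 NCI-H441 ([…] lung) and AsPC-1 (KRAS G12D pancreatic) cells, 800 per well, were seeded in RPMI-1640 with 2% FBS and dosed next day with 3.16-fold compound dilutions (0.1% DMSO). After 5 days at 37 °C, CellTiter-Glo 3D luminescence gave inhibition versus DMSO and blank; IC50 from four-parameter fit.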

[2] = Homo sapiens, NCI-H441, 3D cell proliferation (CellTiter Glo-3D)

| half-life at 1 µM ([1]; NADPH, 37° C., 0/30/60 min) | CLint scaled at 1 µM ([1]; liver intrinsic clearance rate) | IC50 (NCI-H441 cells; [2]) | T1/2 ([1]; NADPH, 37° C., 0/30/60 min) | CLint(liver) ([1]; liver intrinsic clearance rate) | IC50 (NCI-H441 cells; 3D cell proliferation (CellTiter Glo-3D)) | Compound |
| --- | --- | --- | --- | --- | --- | --- |
| 36 min | 44.5 mL/min/kg | 1.16 nM | – | – | – | CCn1c(-c2cc(C#CCN3CCS(=O)(=O)CC3)cnc2[C@H](C)OC)c2c3cc(ccc31)-c1csc(n1)C[C@H](Nc1nnc3cc(C)ccn13)C(=O)N1CCC[C@H](N1)C(=O)OCC(C)(C)C2 (atropisomer, axis not shown; (Ra)) [Compound Z911, (6^3S,4S,Z)—(Ra)-1^2-(5-(3-(1,1-dioxidothiomorpholino)prop-1-yn-1-yl)-2-((S)-1-methoxyethyl)pyridin-3-yl)-1^1-ethyl-10,10-dimethyl-4-((7-methyl-[1,2,4]triazolo[4,3-a]pyridin-3-yl)amino)-6^1,6^2,6^3,6^4,6^5,6^6-hexahydro-1^1H-8-oxa-2(4,2)-thiazola-1(5,3)-indola-6(1.3)-pyridazinacycloundecaphane-5,7-dione] |
| – | – | – | 38.9 min | 41.2 mL/min/kg | 0.63 nM | CCn1c(-c2cc(C#CCN3CCCOCC3)cnc2C(C)C)c2c3cc(ccc31)-c1csc(n1)C[C@H](NC(=O)[C@H]1[C@H](C)[C@@H]1C)C(=O)N1CCC[C@H](N1)C(=O)OCC(C)(C)C2 (atropisomer, axis not shown; (Sa)) [Compound Z811-2, (1r,2R,3S)—N-((6^3S,4S,Z)—(Sa)-1-(5-(3-(1,4-oxazepan-4-yl)prop-1-yn-1-yl)-2-isopropylpyridin-3-yl)-1^1-ethyl-10,10-dimethyl-5,7-dioxo-6^1,6^2,6^3,6^4,6^5,6^6-hexahydro-1^1H-8-oxa-2(4,2)-thiazola-1(5,3)-indola-6(1,3)-pyridazinacycloundecaphane-4-yl)-2,3-dimethylcyclopropane-1-carboxamide] |
| 48.2 min | 33.2 mL/min/kg | 2.14 nM | – | – | – | CCn1c(-c2cc(N3CCN(CCS(C)(=O)=O)CC3)cnc2[C@H](C)OC)c2c3cc(ccc31)-c1csc(n1)C[C@H](NC(=O)[C@H]1[C@H](C)[C@@H]1C)C(=O)N1CCC[C@H](N1)C(=O)OCC1(CC1)C2 (single isomer, unassigned) [Compound Z367] |
| 64.2 min | 25 mL/min/kg | 3.62 nM | – | – | – | CCO[C@@H](C)c1ncc(N2CCN(CCS(C)(=O)=O)CC2)cc1-c1c2c3cc(ccc3n1CC)-c1csc(n1)C[C@H](NC(=O)[C@H]1[C@H](C)[C@@H]1C)C(=O)N1CCC[C@H](N1)C(=O)OCC1(CC1)C2 (single isomer, unassigned) [Compound Z378-1] |
